ChEMBL document CHEMBL3352029, “Ring fusion strategy for the synthesis of anthra[2,3-d]oxazole-2-thione-5,10-dione homologues as DNA topoisomerase inhibitors and as antitumor agents” (Eur J Med Chem, 2014)

Tests used:
NCI-H226 = assay: Cytotoxicity against human NCI-H226 cells assessed as cell growth level at 10 uM after 48 hrs by sulforhodamine B assay; format: functional
MCF7 = assay: Cytotoxicity against human MCF7 cells assessed as cell growth level at 10 uM after 48 hrs by sulforhodamine B assay; format: functional
[1] = Cytotoxicity against human OVCAR5 cells assessed as cell growth level at 10 uM after 48 hrs by sulforhodamine B assay; format: functional, OVCAR-5
[2] = Cytotoxicity against human UO31 cells assessed as cell growth level at 10 uM after 48 hrs by sulforhodamine B assay; format: functional, UO-31
786-0 = assay: Cytotoxicity against human 786-0 cells assessed as cell growth level at 10 uM after 48 hrs by sulforhodamine B assay; format: functional
NCI-H322M = assay: Cytotoxicity against human NCI-H322M cells assessed as cell growth level at 10 uM after 48 hrs by sulforhodamine B assay; format: functional
RXF 393 = assay: Cytotoxicity against human RXF393 cells assessed as cell growth level at 10 uM after 48 hrs by sulforhodamine B assay; format: functional
BT-549 = assay: Cytotoxicity against human BT549 cells assessed as cell growth level at 10 uM after 48 hrs by sulforhodamine B assay; format: functional
[3] = Cytotoxicity against human NCI-ADR-RES cells assessed as cell growth level at 10 uM after 48 hrs by sulforhodamine B assay; format: functional
SK-MEL-5 = assay: Cytotoxicity against human SK-MEL-5 cells assessed as cell growth level at 10 uM after 48 hrs by sulforhodamine B assay; format: functional
KM12 = assay: Cytotoxicity against human KM12 cells assessed as cell growth level at 10 uM after 48 hrs by sulforhodamine B assay; format: functional
[4] = Cytotoxicity against human HCT15 cells assessed as cell growth level at 10 uM after 48 hrs by sulforhodamine B assay; format: functional, HCT-15
[5] = Cytotoxicity against human PC3 cells assessed as inhibition of cell growth after 48 hrs by sulforhodamine B assay; format: functional, cell-based; settings: PC-3, 48 h
SNB-19 = assay: Cytotoxicity against human SNB19 cells assessed as cell growth level at 10 uM after 48 hrs by sulforhodamine B assay; format: functional
M14 = assay: Cytotoxicity against human M14 cells assessed as cell growth level at 10 uM after 48 hrs by sulforhodamine B assay; format: functional
HOP-62 = assay: Cytotoxicity against human HOP62 cells assessed as cell growth level at 10 uM after 48 hrs by sulforhodamine B assay; format: functional
[6] = Cytotoxicity against human OVCAR3 cells assessed as cell growth level at 10 uM after 48 hrs by sulforhodamine B assay; format: functional, OVCAR-3
TK-10 = assay: Cytotoxicity against human TK10 cells assessed as cell growth level at 10 uM after 48 hrs by sulforhodamine B assay; format: functional
A549 = assay: Cytotoxicity against human A549/ATCC cells assessed as cell growth level at 10 uM after 48 hrs by sulforhodamine B assay; format: functional
[7] = Cytotoxicity against human SKOV3 cells assessed as cell growth level at 10 uM after 48 hrs by sulforhodamine B assay; format: functional, SK-OV-3
T47D = assay: Cytotoxicity against human T47D cells assessed as cell growth level at 10 uM after 48 hrs by sulforhodamine B assay; format: functional
SK-MEL-28 = assay: Cytotoxicity against human SK-MEL-28 cells assessed as cell growth level at 10 uM after 48 hrs by sulforhodamine B assay; format: functional
U-251 = assay: Cytotoxicity against human U251 cells assessed as cell growth level at 10 uM after 48 hrs by sulforhodamine B assay; format: functional
COLO 205 = assay: Cytotoxicity against human COLO205 cells assessed as cell growth level at 10 uM after 48 hrs by sulforhodamine B assay; format: functional
[8] = Cytotoxicity against human OVCAR4 cells assessed as cell growth level at 10 uM after 48 hrs by sulforhodamine B assay; format: functional, OVCAR-4
Malme-3M = assay: Cytotoxicity against human MALME-3M cells assessed as cell growth level at 10 uM after 48 hrs by sulforhodamine B assay; format: functional
SR = assay: Cytotoxicity against human SR cells assessed as cell growth level at 10 uM after 48 hrs by sulforhodamine B assay; format: functional
HL-60(TB) = assay: Cytotoxicity against human HL-60(TB) cells assessed as cell growth level at 10 uM after 48 hrs by sulforhodamine B assay; format: functional
SW-620 = assay: Cytotoxicity against human SW620 cells assessed as cell growth level at 10 uM after 48 hrs by sulforhodamine B assay; format: functional
MDA-MB-231 = assay: Cytotoxicity against human MDA-MB-231 cells assessed as cell growth level at 10 uM after 48 hrs by sulforhodamine B assay; format: functional
[9] = Cytotoxicity against human HCT116 cells assessed as cell growth level at 10 uM after 48 hrs by sulforhodamine B assay; format: functional, HCT-116
SN12C = assay: Cytotoxicity against human SN12C cells assessed as cell growth level at 10 uM after 48 hrs by sulforhodamine B assay; format: functional
DU-145 = assay: Cytotoxicity against human DU145 cells assessed as cell growth level at 10 uM after 48 hrs by sulforhodamine B assay; format: functional
LOX IMVI = assay: Cytotoxicity against human LOXIMVI cells assessed as cell growth level at 10 uM after 48 hrs by sulforhodamine B assay; format: functional
MOLT-4 = assay: Cytotoxicity against human MOLT4 cells assessed as cell growth level at 10 uM after 48 hrs by sulforhodamine B assay; format: functional
SK-MEL-2 = assay: Cytotoxicity against human SK-MEL-2 cells assessed as cell growth level at 10 uM after 48 hrs by sulforhodamine B assay; format: functional
[10] = Cytotoxicity against human OVCAR8 cells assessed as cell growth level at 10 uM after 48 hrs by sulforhodamine B assay; format: functional, OVCAR-8
K562 = assay: Cytotoxicity against human K562 cells assessed as cell growth level at 10 uM after 48 hrs by sulforhodamine B assay; format: functional
NCI-H23 = assay: Cytotoxicity against human NCI-H23 cells assessed as cell growth level at 10 uM after 48 hrs by sulforhodamine B assay; format: functional
SNB-75 = assay: Cytotoxicity against human SNB75 cells assessed as cell growth level at 10 uM after 48 hrs by sulforhodamine B assay; format: functional
[11] = Cytotoxicity against human UACC62 cells assessed as cell growth level at 10 uM after 48 hrs by sulforhodamine B assay; format: functional, UACC-62
ACHN = assay: Cytotoxicity against human ACHN cells assessed as cell growth level at 10 uM after 48 hrs by sulforhodamine B assay; format: functional
[12] = Cytotoxicity against human UACC257 cells assessed as cell growth level at 10 uM after 48 hrs by sulforhodamine B assay; format: functional, UACC-257
MDA-MB-435 = assay: Cytotoxicity against human MDA-MB-435 cells assessed as cell growth level at 10 uM after 48 hrs by sulforhodamine B assay; format: functional
IGROV-1 = assay: Cytotoxicity against human IGROV1 cells assessed as cell growth level at 10 uM after 48 hrs by sulforhodamine B assay; format: functional
RPMI-8226 = assay: Cytotoxicity against human RPMI8226 cells assessed as cell growth level at 10 uM after 48 hrs by sulforhodamine B assay; format: functional
HCC 2998 = assay: Cytotoxicity against human HCC2998 cells assessed as cell growth level at 10 uM after 48 hrs by sulforhodamine B assay; format: functional

CCSc1nc2cc3c(cc2o1)C(=O)c1ccccc1C3=O
Activity (NCI-H226): 82.45% | Activity (MCF7): 81.27% | Activity [1]: 104.57% | Activity [2]: 57.94% | Activity (786-0): 99.33% | Activity (NCI-H322M): 77.88% | Activity (RXF 393): 101% | Activity (BT-549): 114.59% | Activity [3]: 95.82% | Activity (SK-MEL-5): 100.35% | Activity (KM12): 101.43% | Activity [4]: 96.65% | IC50 [5]: > 30 µM | Activity (SNB-19): 99.9% | Activity (M14): 98.8% | Activity (HOP-62): 75.13% | Activity [6]: 101% | Activity (TK-10): 100.92% | Activity (A549): 96.49% | Activity [7]: 90.67% | Activity (T47D): 96.02% | Activity (SK-MEL-28): 92.36% | Activity (U-251): 94% | Activity (COLO 205): 98.08% | Activity [8]: 94.25% | Activity (Malme-3M): 91.75% | Activity (SR): 92.53% | Activity (HL-60(TB)): 96.05% | Activity (SW-620): 91.86% | Activity (MDA-MB-231): 90.66% | Activity [9]: 95.99% | Activity (SN12C): 98.57% | Activity (DU-145): 107.71% | Activity (LOX IMVI): 91% | Activity (MOLT-4): 101.76% | Activity (SK-MEL-2): 96.71% | Activity [10]: 92.46% | Activity (K562): 96.26% | Activity (NCI-H23): 90.76% | Activity (SNB-75): 96.42% | Activity [11]: 89.01% | Activity (ACHN): 90.86% | Activity [12]: 92.45% | Activity (MDA-MB-435): 101.49% | Activity (IGROV-1): 79.05% | Activity (RPMI-8226): 91.04% | Activity (HCC 2998): 101.65%

CN(C)CCCSc1nc2cc3c(cc2o1)C(=O)c1ccccc1C3=O
Activity (NCI-H226): 100.17% | Activity (MCF7): 52.24% | Activity [1]: 86.43% | Activity [2]: 59.82% | Activity (786-0): 86.09% | Activity (NCI-H322M): 85.16% | Activity (RXF 393): 83.05% | Activity (BT-549): 107.23% | Activity [3]: 90.68% | Activity (SK-MEL-5): 90.17% | Activity (KM12): 82.13% | Activity [4]: 68.98% | IC50 [5]: 16 µM | Activity (SNB-19): 90.07% | Activity (M14): 101.41% | Activity (HOP-62): 85.62% | Activity [6]: 100.68% | Activity (TK-10): 73.42% | Activity (A549): 54.13% | Activity [7]: 77.71% | Activity (T47D): 82.2% | Activity (SK-MEL-28): 108.23% | Activity (U-251): 87.74% | Activity (COLO 205): 59.49% | Activity [8]: 109.08% | Activity (Malme-3M): 101.35% | Activity (SR): 28.03% | Activity (HL-60(TB)): 75.05% | Activity (SW-620): 69.11% | Activity (MDA-MB-231): 71.49% | Activity [9]: 59.24% | Activity (SN12C): 88.52% | Activity (DU-145): 53.81% | Activity (LOX IMVI): 76.64% | Activity (MOLT-4): 13.77% | Activity (SK-MEL-2): 92.13% | Activity [10]: 72.26% | Activity (K562): 51.17% | Activity (NCI-H23): 97.69% | Activity (SNB-75): 88.28% | Activity [11]: 86% | Activity (ACHN): 57.3% | Activity [12]: 99.82% | Activity (MDA-MB-435): 85.47% | Activity (IGROV-1): 71.71% | Activity (RPMI-8226): 84.91% | Activity (HCC 2998): 100.1%

O=C1c2ccccc2C(=O)c2cc3oc(SCc4ccc(F)cc4)nc3cc21
Activity (NCI-H226): 83.03% | Activity (MCF7): 80.56% | Activity [1]: 94.94% | Activity [2]: 77.49% | Activity (786-0): 98.08% | Activity (NCI-H322M): 85.42% | Activity (RXF 393): 90.29% | Activity (BT-549): 102.4% | Activity [3]: 91.27% | Activity (SK-MEL-5): 97.58% | Activity (KM12): 104.72% | Activity [4]: 94.53% | IC50 [5]: > 30 µM | Activity (SNB-19): 104.56% | Activity (M14): 103.58% | Activity (HOP-62): 89.39% | Activity [6]: 115.02% | Activity (TK-10): 92.13% | Activity (A549): 83.66% | Activity [7]: 86.24% | Activity (T47D): 102.69% | Activity (SK-MEL-28): 98.54% | Activity (U-251): 96.4% | Activity (COLO 205): 103.52% | Activity [8]: 74.06% | Activity (Malme-3M): 89.8% | Activity (SR): 85.14% | Activity (HL-60(TB)): 95.74% | Activity (SW-620): 100.32% | Activity (MDA-MB-231): 103.32% | Activity [9]: 88.61% | Activity (SN12C): 92.48% | Activity (DU-145): 103.51% | Activity (LOX IMVI): 94.24% | Activity (MOLT-4): 90.09% | Activity (SK-MEL-2): 86.04% | Activity [10]: 94.89% | Activity (K562): 93.54% | Activity (NCI-H23): 90.64% | Activity (SNB-75): 88.45% | Activity [11]: 89.94% | Activity (ACHN): 82.53% | Activity [12]: 98.94% | Activity (MDA-MB-435): 91.05% | Activity (IGROV-1): 87.04% | Activity (RPMI-8226): 96.5% | Activity (HCC 2998): 108.69%
